Laboratory results taken from US20110076331A1, “Use of Deuterium Oxide as an Elastase Inhibitor” (priority 2008, published 2011).

Legend:
[1] = test system: Syrian Gold hamsters; experiment: D2O aerosols in an animal model of COPD (HNE-induced hemorrhage); format: in vivo, hamster
Protocol: The employed H2O was distilled and ion-exchanged. Both D2O and H2O were sterile. A Pari LC Plus universal atomizer (PARI GmbH, Starnberg, Germany) was used for aerosolization combined with a Pari universal compressor, which generated 200 mg/min polydispersed aerosol with an average particle size (median diameter) of 2.5 μm for pure H2O and pure D2O and 2.5-4.5 μm for H2O and D2O with additional non-pharmaceutical and/or pharmaceutical agents (operating pressure 2.0 bar, flow rate of the compressor air was 6.0 L/min). The particle size measurement occurred with dynamic light scattering in a flow cell. Aerosol generation occurred at a temperature of 37° C. by corresponding thermostating of the atomizer in a water bath thermostat.
Male Syrian Gold hamsters (average weight 105 g±8 g) were divided into two groups (experimental group and control group) of six hamsters each. The animals of both groups were anesthetized intraperitoneally (ketamine 95 mg/kg and xylazine 17 mg/kg) and then intubated endotracheally by direct laryngoscopy. Both groups received 100 μL of human neutrophil elastase (500 μg/mL in sterile 0.9% NaCl solution) instilled. […] For BAL 2.5 mL 0.9% NaCl solution was repeatedly instilled (total of three times) and the hemoglobin concentration then determined in the instillate speetrophotometrically. […] For the experimental group an average hemoglobin value of 120±20 mOD was measured. […]

[2] = test system: elastase activity in the blister fluid; experiment: Ex vivo bullous pemphigoid blister fluid: degradation of recombinant BP180 antigen; format: biochemical, human; conditions: added to blister fluid; autoradiography after gel electrophoresis; vs untreated control
Protocol: The blister fluid in patients with bullous pemphigoid was sampled in an ex vivo model (Verraes et al., 2001). Recombinant radioactively-labeled BP180 antigen, the target antigen in this disease, was then added to the blister fluid and decay determined autoradiographically after gel electrophoresis. For inhibition of elastase activity in the blister fluid either D2O or the elastase inhibitor chloromethyl ketone was added to it. An untreated control served as comparison. Both with chloromethyl ketone and with D2O the degradation of the recombinant BP180 antigen could be inhibited, whereas the protein was almost completely degraded by the untreated blister fluid.

[3] = test system: subjects with colds accompanied by severe nasal obstruction; experiment: Decongestion of nasal mucosa (rhinomanometry); format: in vivo, human; conditions: one pump spray of D2O saline in each nostril
Protocol: Physiological saline was prepared from D2O (experiment group) and H2O (control group) and filled into a pump spray container as is ordinarily used to release nasal spray. Subjects with colds accompanied by severe nasal obstruction were divided into two groups of eight subjects each. Air flow through the nose was determined by rhinomanometry (initial value) in each subject right before treatment (after thorough removal of secretions). The subjects of the experimental group then each received one pump spray of D2O saline in each nostril, while the subjects of the control group received H2O saline instead in the same amount. Thirty and 60 minutes after application air flow was determined in each subject by rhinomanometry and the percent change of air flow relative to the initial value was calculated. From these values an average was formed for the verum and control groups (average percentage change in air flow <Lf%>). A positive value of <Lf%> indicates an increase, a negative value a reduction in air flow. For the experimental group after 30 minutes a value of <Lf%>=20±5% and after 60 minutes <Lf%>=90±10% was obtained. The control group gave <Lf%>=10±5% after 30 minutes and <Lf%>=5±5% after 60 minutes.

Structure (SMILES): [2H]O[2H] [D2O, deuterium oxide]
- inhibition of acute lung damage caused by elastase (hemorrhage) ([1]; D2O aerosol 24 hours, from reduction in hemoglobin concentration vs H2O aerosol control group): 60%
- average hemoglobin value in BAL ([1]; continuous D2O aerosol in respiration air for 24 hours after HNE instillation): 120±20 mOD
- degradation of the recombinant BP180 antigen [2]: inhibited
- average percentage change in air flow <Lf%> ([3]; after 30 minutes): 20±5%
- average percentage change in air flow <Lf%> ([3]; after 60 minutes): 90±10%
